Like-named read-outs stand apart in the source and are kept apart here.
Assays:
[1] = Hydrophilicity-hydrophobicity coefficient from water activity value of 20% aqueous solution (equation (A)); format: physicochemical
[2] = 20% aqueous solution, water activity by chilled mirror dew point method (AquaLab CX-3TE) at 25° C., equation (A)

## OCCOCCOCCO [Triethylene glycol]
[1]; [2]
  Hydrophilicity-hydrophobicity coefficient: 0.07
Solubility in water
  Solubility: > 20 g/100 g H2O

## CC(C)(O)CCO [3-Methyl-1,3-butanediol]
[1]; [2]
  Hydrophilicity-hydrophobicity coefficient: 0.90
Solubility in water
  Solubility: > 20 g/100 g H2O

## Polyethylene glycol 200
[1]; [2]
  Hydrophilicity-hydrophobicity coefficient: −0.09
Solubility in water
  Solubility: > 20 g/100 g H2O

## OCCC(O)CO (stereo not drawn) [1,2,4-Butanetriol]
[1]; [2]
  Hydrophilicity-hydrophobicity coefficient: 0.15
Solubility in water
  Solubility: > 20 g/100 g H2O

## OCCCCCCCO [1,7-Heptanediol]
[1]; [2]
  Hydrophilicity-hydrophobicity coefficient: 0.73
Solubility in water
  Solubility: > 20 g/100 g H2O

## CCC(O)CO (stereo not drawn) [1,2-Butanediol]
[1]; [2]
  Hydrophilicity-hydrophobicity coefficient: 0.90
Solubility in water
  Solubility: > 20 g/100 g H2O

## OC[C@@H](O)[C@@H](O)[C@H](O)[C@@H](O)CO [Sorbitol]
[1]; [2]
  Hydrophilicity-hydrophobicity coefficient: 0.21
Solubility in water
  Solubility: > 20 g/100 g H2O

## OCCCCCCO [1,6-Hexanediol]
[1]; [2]
  Hydrophilicity-hydrophobicity coefficient: 0.76
Solubility in water
  Solubility: > 20 g/100 g H2O

## OCC(O)CO [Glycerin]
[1]; [2]
  Hydrophilicity-hydrophobicity coefficient: 0.11
Solubility in water
  Solubility: > 20 g/100 g H2O

## CCCCC(O)CO (stereo not drawn) [1,2-Hexanediol]
[1]; [2]
  Hydrophilicity-hydrophobicity coefficient: 0.97
Solubility in water
  Solubility: > 20 g/100 g H2O

## CC(CCO)CCO [3-Methyl-1,5-Pentanediol]
[1]; [2]
  Hydrophilicity-hydrophobicity coefficient: 0.54
Solubility in water
  Solubility: > 20 g/100 g H2O

## CC(O)C(O)CO (stereo not drawn) [1,2,3-Butanetriol]
[1]; [2]
  Hydrophilicity-hydrophobicity coefficient: 0.22
Solubility in water
  Solubility: > 20 g/100 g H2O

## Polyethylene glycol 600
[1]; [2]
  Hydrophilicity-hydrophobicity coefficient: −0.43
Solubility in water
  Solubility: > 20 g/100 g H2O

## Bishydroxyethyl sulfone
[1]
  Hydrophilicity-hydrophobicity coefficient: 0.21

## NC(N)=O [Urea]
[1]; [2]
  Hydrophilicity-hydrophobicity coefficient: 0.20
Solubility in water
  Solubility: > 20 g/100 g H2O

## OCCCCCO [1,5-Pentanediol]
[1]; [2]
  Hydrophilicity-hydrophobicity coefficient: 0.41
Solubility in water
  Solubility: > 20 g/100 g H2O

## OCCCCC(O)CO (stereo not drawn) [1,2,6-Hexanetriol]
[1]; [2]
  Hydrophilicity-hydrophobicity coefficient: 0.28
Solubility in water
  Solubility: > 20 g/100 g H2O

## CC(O)CC(C)O (stereo not drawn) [2,4-Pentanediol]
[1]; [2]
  Hydrophilicity-hydrophobicity coefficient: 0.86
Solubility in water
  Solubility: > 20 g/100 g H2O

## O=C1NCCN1 [Ethylene urea]
[1]; [2]
  Hydrophilicity-hydrophobicity coefficient: 0.30
Solubility in water
  Solubility: > 20 g/100 g H2O

## CCCC(O)CO (stereo not drawn) [1,2-Pentanediol]
[1]; [2]
  Hydrophilicity-hydrophobicity coefficient: 0.93
Solubility in water
  Solubility: > 20 g/100 g H2O

Source: patent US9278527B2, “Ink jet recording ink, ink jet recording method, ink jet recording head, and ink jet recording apparatus” (CANON FINETECH INC., priority 2013, dated 2016)
